Consider 19 molecules from US12157746B2, “Tetrahydro-1H-pyrazino[2,1-a]isoindolylquinoline compounds for the treatment of autoimmune disease” (F. HOFFMANN-LA ROCHE AG, priority 2018, dated 2024).

A value given as a limit tells only on which side of the number the result lay.

The target in the experiment is T1, human TLR8 (Homo sapiens, UniProt Q9NR97).
T1 sequence (Q9NR97 27-1041): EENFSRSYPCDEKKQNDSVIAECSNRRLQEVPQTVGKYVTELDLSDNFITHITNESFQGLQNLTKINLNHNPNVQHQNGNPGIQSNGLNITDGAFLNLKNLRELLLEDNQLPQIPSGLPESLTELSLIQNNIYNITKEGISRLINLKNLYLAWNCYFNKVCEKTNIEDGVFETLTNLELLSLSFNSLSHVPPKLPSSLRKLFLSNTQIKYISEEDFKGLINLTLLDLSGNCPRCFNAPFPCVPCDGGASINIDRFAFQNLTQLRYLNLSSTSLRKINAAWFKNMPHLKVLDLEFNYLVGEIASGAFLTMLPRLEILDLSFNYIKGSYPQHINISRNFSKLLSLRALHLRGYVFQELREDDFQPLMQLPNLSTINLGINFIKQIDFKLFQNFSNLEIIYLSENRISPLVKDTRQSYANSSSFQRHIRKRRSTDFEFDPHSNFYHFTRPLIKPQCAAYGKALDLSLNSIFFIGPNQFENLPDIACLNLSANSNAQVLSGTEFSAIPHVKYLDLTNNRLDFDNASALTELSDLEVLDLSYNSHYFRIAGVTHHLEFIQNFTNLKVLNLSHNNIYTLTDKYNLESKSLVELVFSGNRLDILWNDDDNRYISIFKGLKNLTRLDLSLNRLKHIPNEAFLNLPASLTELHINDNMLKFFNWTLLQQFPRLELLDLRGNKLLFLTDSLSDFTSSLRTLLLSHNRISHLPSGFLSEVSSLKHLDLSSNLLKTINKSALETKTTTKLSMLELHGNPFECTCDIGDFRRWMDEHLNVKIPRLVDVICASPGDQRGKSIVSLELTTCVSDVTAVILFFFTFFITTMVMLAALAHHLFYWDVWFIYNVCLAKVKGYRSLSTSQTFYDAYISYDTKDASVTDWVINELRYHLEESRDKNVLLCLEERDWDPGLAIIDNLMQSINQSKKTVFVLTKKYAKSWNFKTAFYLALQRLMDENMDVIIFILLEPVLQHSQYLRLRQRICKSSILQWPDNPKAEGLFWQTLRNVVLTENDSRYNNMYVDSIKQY
The experiment in a line: HEK293-Blue-hTLR-8 cells assay. Type of experiment: cell-based. The following applies: HEK293-Blue-hTLR8 cells, R848 stimulation, 20 hrs, SEAP reporter; read-out: HEK/hTLR8 IC50. The source says:
HEK293-Blue-hTLR-8 Cells Assay:
A stable HEK293-Blue-hTLR-8 cell line was purchased from InvivoGen (Cat. #: hkb-htlr8, San Diego, California, USA). These cells were originally designed for studying the stimulation of human TLR8 by monitoring the activation of NF-κB. A SEAP (secreted embryonic alkaline phosphatase) reporter gene was placed under the control of the IFN-β minimal promoter fused to five NF-κB and AP-1-binding sites. The SEAP was induced by activating NF-κB and AP-1 via stimulating HEK-Blue hTLR8 cells with TLR8 ligands. Therefore the reporter expression was declined by TLR8 antagonist under the stimulation of a ligand, such as R848, for incubation of 20 hrs. The cell culture supernatant SEAP reporter activity was determined using QUANTI-Blue™kit (Cat. #: rep-qb1, Invivogen, San Diego, Ca, USA) at a wavelength of 640 nm, a detection medium that turns purple or blue in the presence of alkaline phosphatase.
HEK293-Blue-hTLR8 cells were incubated at a density of 250,000-450,000 cells/mL in a volume of 170 μL in a 96-well plate in Dulbecco's Modified Eagle's medium (DMEM) containing 4.5 g/L glucose, 50 U/mL penicillin, […], […], 2 mM L-glutamine, 10% (v/v) heat-inactivated fetal bovine serum with addition of 20 μL test compound 1n a serial dilution in the presence of final DMSO at 1% and 10 μL of 60 uM R848 in above DMEM, perform incubation under 37° C. in a CO2 incubator for 20 hrs. Then 20 μL of the supernatant from each well was incubated with 180 μL Quanti-blue substrate solution at 37° C. for 2 hrs and the absorbance was read at 620-655 nm using a spectrophotometer. The signaling pathway that TLR8 activation leads to downstream NF-κB activation has been widely accepted, and therefore similar reporter assay was modified for evaluating TLR8 antagonist.
With `C[C@@H]1CN(c2ccc(C#N)c3ncccc23)C[C@@H]2c3ccc(N4CCOC5(CNC5)C4)cc3CN12` [Example 24, 5-[(4R,10bS)-4-methyl-8-(5-oxa-2,8-diazaspiro[3.5]nonan-8-yl)-3,4,6,10b-tetrahydro-1H-pyrazino[2,1-a]isoindol-2-yl]quinoline-8-carbonitrile], the IC50 is less than 3.2 nM.
To `C[C@@H]1CN(c2ccc3c(c2)CN2[C@H](C)CN(c4ccc(C#N)n5nccc45)C[C@H]32)CCN1` [Example 97, 4-[(4R,10bS)-4-methyl-8-[(3R)-3-methylpiperazin-1-yl]-3,4,6,10b-tetrahydro-1H-pyrazino[2,1-a]isoindol-2-yl]pyrazolo[1,5-a]pyridine-7-carbonitrile] belongs 1 nM; to `C[C@@H]1CN(c2ccc(C#N)c3ncccc23)C[C@@H]2c3ccc(C4CCNCC4)cc3CN12` [Example 9, 5-[(4R,10bS)-4-methyl-8-(4-piperidyl)-3,4,6,10b-tetrahydro-1H-pyrazino[2,1-a]isoindol-2-yl]quinoline-8-carbonitrile], less than 3.2 nM; to `C[C@@H]1CN(c2ccc(C#N)c3ncccc23)C[C@@H]2c3ccc(N4CCNC[C@@H]4CO)cc3CN12` [Example 10, 5-[(4R,10bS)-8-[(2R)-2-(hydroxymethyl)piperazin-1-yl]-4-methyl-3,4,6,10b-tetrahydro-1H-pyrazino[2,1-a]isoindol-2-yl]quinoline-8-carbonitrile], less than 3.2 nM.
The same measure for `C[C@@H]1CN(c2ccc(C#N)c3ncccc23)C[C@@H]2c3ccc(N4CCNCC(C)(O)C4)cc3CN12` (stereo partly drawn) [Example 55, 5-[(4R,10S)-8-(6-hydroxy-6-methyl-1,4-diazepan-1-yl)-4-methyl-3,4,6,10b-tetrahydro-1H-pyrazino[2,1-a]isoindol-2-yl]quinoline-8-carbonitrile]: less than 3.2 nM; for `CO[C@@H]1CN(c2ccc3c(c2)CN2[C@H](C)CN(c4ccc(C#N)n5nccc45)C[C@H]32)C[C@H]1N` [Example 94, 4-[(4R,10bS)-8-[(3R,4R)-3-amino-4-methoxy-pyrrolidin-1-yl]-4-methyl-3,4,6,10b-tetrahydro-1H-pyrazino[2,1-a]isoindol-2-yl]pyrazolo[1,5-a]pyridine-7-carbonitrile]: 5.6 nM; for `C[C@@H]1CN(c2ccc(C#N)n3nccc23)C[C@@H]2c3ccc(N4CCNCC4)cc3CN12` [Example 5, 4-[(4R,10bS)-4-methyl-8-piperazin-1-yl-3,4,6,10b-tetrahydro-1H-pyrazino[2,1-a]isoindol-2-yl]pyrazolo[1,5-a]pyridine-7-carbonitrile]: less than 3.2 nM.
As to `C[C@@H]1CN(c2ccc(C#N)n3nccc23)C[C@@H]2c3ccc(N[C@H]4CNC[C@H]4F)cc3CN12` [Example 98, 4-[(4R,10bS)-8-[[(3S,4R)-4-fluoropyrrolidin-3-yl]amino]-4-methyl-3,4,6,10b-tetrahydro-1H-pyrazino[2,1-a]isoindol-2-yl]pyrazolo[1,5-a]pyridine-7-carbonitrile], the IC50 was 8.8 nM.
As for `[2H]c1ccc2c(N3C[C@@H](C)N4Cc5cc(N[C@H]6CNC[C@H]6F)ccc5[C@H]4C3)ccc(C#N)c2n1` [Example 91, 5-[(4R,10bS)-8-[[(3S,4R)-4-fluoropyrrolidin-3-yl]amino]-4-methyl-3,4,6,10b-tetrahydro-1H-pyrazino[2,1-a]isoindol-2-yl]-2-deuterio-quinoline-8-carbonitrile], the IC50 was 0.6 nM.
In the case of `CN[C@H]1CN(c2ccc3c(c2)CN2[C@H](C)CN(c4ccc(C#N)c5ncccc45)C[C@H]32)C[C@@H]1O` [Example 42, 5-[(4R,10bS)-8-[(3S,4S)-3-hydroxy-4-(methylamino)pyrrolidin-1-yl]-4-methyl-3,4,6,10b-tetrahydro-1H-pyrazino[2,1-a]isoindol-2-yl]quinoline-8-carbonitrile], the IC50 was less than 3.2 nM.
With `C[C@@H]1CN(c2ccc(C#N)c3ncccc23)C[C@@H]2c3ccc(N4CC(N)C4)cc3CN12` [Example 22, 5-[(4R,10bS)-8-(3-aminoazetidin-1-yl)-4-methyl-3,4,6,10b-tetrahydro-1H-pyrazino[2,1-a]isoindol-2-yl]quinoline-8-carbonitrile], the IC50 was less than 3.2 nM.
To `C[C@@H]1CN(c2ccc(C#N)c3ncccc23)C[C@@H]2c3ccc(N4CCNC[C@@H](O)C4)cc3CN12` [Example 53B, 5-[(4R,10bS)-8-[(6R)-6-hydroxy-1,4-diazepan-1-yl]-4-methyl-3,4,6,10b-tetrahydro-1H-pyrazino[2,1-a]isoindol-2-yl]quinoline-8-carbonitrile] belongs less than 3.2 nM.
The same measure for `CN[C@@H]1CN(c2ccc3c(c2)CN2[C@H](C)CN(c4ccc(C#N)c5ncccc45)C[C@H]32)C[C@H]1O` [Example 43, 5-[(4R,10bS)-4-methyl-8-[(3R,4R)-3-hydroxy-4-(methylamino)pyrrolidin-1-yl]-3,4,6,10b-tetrahydro-1H-pyrazino[2,1-a]isoindol-2-yl]quinoline-8-carbonitrile]: less than 3.2 nM.
On to `C[C@@H]1CN(c2ccc(C#N)n3nccc23)C[C@@H]2c3ccc(N4CC[C@@](C)(N)C4)cc3CN12` [Example 103, 4-[(4R,10bS)-8-[(3R)-3-amino-3-methyl-pyrrolidin-1-yl]-4-methyl-3,4,6,10b-tetrahydro-1H-pyrazino[2,1-a]isoindol-2-yl]pyrazolo[1,5-a]pyridine-7-carbonitrile], for which the IC50 came to 4.8 nM.
To `C[C@@H]1CN(c2ccc(C#N)n3nccc23)C[C@@H]2c3ccc(N4CCOC[C@H](N)C4)cc3CN12` [Example 101, 4-[(4R,10bS)-8-[(6R)-6-amino-1,4-oxazepan-4-yl]-4-methyl-3,4,6,10b-tetrahydro-1H-pyrazino[2,1-a]isoindol-2-yl]pyrazolo[1,5-a]pyridine-7-carbonitrile] belongs 5.2 nM.
As for `C[C@@H]1CN(c2ccc(C#N)n3nccc23)C[C@@H]2c3ccc(N4C[C@H](N)[C@@H](O)C4)cc3CN12` [Example 111, 4-[(4R,10bS)-8-[(3S,4S)-3-amino-4-hydroxy-pyrrolidin-1-yl]-4-methyl-3,4,6,10b-tetrahydro-1H-pyrazino[2,1-a]isoindol-2-yl]pyrazolo[1,5-a]pyridine-7-carbonitrile], the IC50 was 2 nM.
With `C[C@@H]1CN(c2ccc(C#N)c3ncccc23)C[C@@H]2c3cccc(N4CCNCC4)c3CN12` [Example 8, 5-[(4R,10bS)-4-methyl-7-piperazin-1-yl-3,4,6,10b-tetrahydro-1H-pyrazino[2,1-a]isoindol-2-yl]quinoline-8-carbonitrile], the IC50 is less than 3.2 nM.
Consider `C[C@@H]1CN(c2ccc(C#N)c3ncccc23)C[C@@H]2c3ccc(N4CCC(C)(N)CC4)cc3CN12` [Example 51, 5-[(4R,10bS)-8-(4-amino-4-methyl-1-piperidyl)-4-methyl-3,4,6,10b-tetrahydro-1H-pyrazino[2,1-a]isoindol-2-yl]quinoline-8-carbonitrile], for which the IC50 was less than 0.3 nM.
To `C[C@@H]1CN(c2ccc(C#N)n3nccc23)C[C@@H]2c3ccc(N4CC5CNCC(C4)O5)cc3CN12` [Example 107, 4-[(4R,10bS)-4-methyl-8-(9-oxa-3,7-diazabicyclo[3.3.1]nonan-3-yl)-3,4,6,10b-tetrahydro-1H-pyrazino[2,1-a]isoindol-2-yl]pyrazolo[1,5-a]pyridine-7-carbonitrile] belongs 16.5 nM.
